Here are results for twelve compounds from article PMC5972182, “Comparison of a Rat Primary Cell-Based Blood-Brain Barrier Model With Epithelial and Brain Endothelial Cell Lines: Gene Expression and Drug Transport” (Frontiers in Molecular Neuroscience, 2018).

The Papp A→B is how fast a substance crosses the layer from the apical side. A low value points to slow passage. As a reminder, the Papp is a coefficient for how fast a substance crosses the barrier. A higher Papp goes with fast passage. Broadly, the efflux ratio is the permeability from basolateral to apical divided by that in the opposite direction, in the common usage.

Series [1] is described as follows: Permeability across vinblastine-selected VB-Caco-2 cell layers. To be noted: human. In general terms: Caco-2 cells form a polarised layer with tight junctions and transporters.
A short description of series [2]: Permeability across primary rat brain endothelial cell-based triple co-culture BBB model (EPA).
Series [3] is described as follows: Permeability across Caco-2 epithelial cell layers. Particulars: human, CaCo2, fluorescein 10 μg/ml, mean ± SD. It is filed as in vitro ADME.
The nature of series [4]: Permeability across MDCK cell layers. It counts as in vitro ADME, canine. To be noted: dog, fluorescein 10 μg/ml, mean ± SD.
A short description of series [5]: Permeability across MDCK-MDR1 cell layers. It is filed as in vitro ADME, canine. To be noted: dog, fluorescein 10 μg/ml, mean ± SD.
Series [6] in a line: Permeability across GP8 brain endothelial cell line. It counts as in vitro ADME. To be noted: rat, fluorescein 10 μg/ml, mean ± SD. The protocol: GP8 rat brain endothelial cell line (provided by Dr. John Greenwood, University College London, UK) was cultured in DMEM/ HAM’s F-12, 15% PDS, 100 μg/ml heparin, 1 ng/ml bFGF and 50 μg/ml gentamicin.
Series [7] can be described thus: Permeability across RBE4 brain endothelial cell line. Particulars: rat, fluorescein 10 μg/ml, mean ± SD. It is filed as in vitro ADME. The protocol:
RBE4 rat brain endothelial cell line (provided by Dr. Pierre-Olivier Couraud, Institut Cochin, Paris, France) was grown in DMEM/ HAM’s F-12, supplemented with 10% FBS, 1 ng/ml bFGF and 50 μg/ml gentamicin.

A short description of series [8]: Permeability across hCMEC/D3 (D3) brain endothelial cell line. It is filed as in vitro ADME. To be noted: human, fluorescein 10 μg/ml, mean ± SD. The protocol: (§1) Cultures of human brain endothelial hCMEC/D3 cell line (≤passage number 35) were grown in MCDB 131 medium (Pan Biotech) supplemented with 5% FBS, GlutaMAX (100×, LifeTechnologies, Carlsbad, CA, USA), lipid supplement (100×, Life Technologies, Carlsbad, CA, USA), 10 μg/ml ascorbic acid, 550 nM hydrocortisone, 100 μg/ml heparin, 1 ng/ml basic fibroblast growth factor (bFGF, Roche, USA), 2.5 μg/ml insulin, 2.5 μg/ml transferrin, 2.5 ng/ml sodium selenite and 50 μg/ml gentamicin (Weksler et al., [2005]). For differentiation of this cell line (D3L group), the medium was supplemented with 10 mM lithium chloride (LiCl) at the first change of medium (Paolinelli et al., [2013]). For the three brain endothelial cell lines, we used culture media with very similar or identical composition to those that were originally described for their growth and maintenance.

Series [9] can be described thus: Permeability across lithium-treated hCMEC/D3 (D3L) cells. It counts as in vitro ADME. To be noted: human, D3L (10 mM LiCl), fluorescein 10 μg/ml, mean ± SD. The protocol:
as §1

Series [10] is described as follows: in vitro. To be noted: rat.
Series [11] in a line: in vitro. Particulars: human, Caco-2.
The next series relates to hCMEC/D3 cells. In words: Transendothelial electrical resistance (TEER) of D3 cells after lithium treatment. It counts as cell-based, human. Particulars: 10 mM lithium chloride in medium; unpaired t-test, P < 0.0004. Here is the method:
as §1
Transendothelial electrical resistance (TEER), reflecting the permeability of TJ for sodium ions, was measured by an EVOM voltohmmeter (World Precision Instruments, Sarasota, FL, USA) combined with STX-2 electrodes. Recorded resistance was expressed to the surface area of the filters (Ω × cm^2, Transwell inserts, […] membrane, 0.4 μm pore size, Corning Costar, USA). TEER of cell-free inserts (110 Ω × cm^2) was subtracted from the measured data.

Take `NCC(CC(=O)O)c1ccc(Cl)cc1` (centres unmarked) [Baclofen, baclofen]: the apical-to-basolateral permeability (Papp A→B) in series [1] was 0.31 ×10⁻⁶ cm/s; in series [2] (Wistar), 16.3 ×10⁻⁶ cm/s.

With `O=C1OC2(c3ccc(O)cc3Oc3cc(O)ccc32)c2ccccc21` [Fluorescein, fluorescein], the apparent permeability (Papp) at 30 min, 10 µg/ml came to 1.5 ± 0.28 ×10⁻⁶ cm/s in series [3]; 2.8 ± 0.23 ×10⁻⁶ cm/s in series [4]; 2.7 ± 0.31 ×10⁻⁶ cm/s in series [5]; 39.8 ± 3.51 ×10⁻⁶ cm/s in series [6]; 27.4 ± 1.63 ×10⁻⁶ cm/s in [7]; 22.2 ± 3.71 ×10⁻⁶ cm/s in series [8]. For the same compound, the Papp at 30 min, 10 µg/ml in [9] was 19.3 ± 1.22 ×10⁻⁶ cm/s; in series [1] it was 0.3 ± 0.06 ×10⁻⁶ cm/s; in [2] (Wistar) it was 2.1 ± 0.25 ×10⁻⁶ cm/s.

Consider `NCC1(CC(=O)O)CCCCC1` [Gabapentin, gabapentin], for which, in the series on VB-Caco-2 cells, the “Papp A-B” value is reported as “below the detection limit”. The Papp A→B in the series “in vitro [10]” (Wistar) is 2.98 ×10⁻⁶ cm/s; in “in vitro [11]” it was less than 0.88 ×10⁻⁶ cm/s. In addition, the efflux ratio in “in vitro [10]” is 0.92; in “in vitro [11]”, greater than 0.27.

For the compound `CO[C@H]1[C@H](O)[C@@H](CO)OC(O)[C@@H]1O` (stereo partly drawn) [Glucopyranose, 3-O-methyl-D-glucopyranose], the Papp A→B in series [1] was 17.2 ×10⁻⁶ cm/s; in series [2] (Wistar), less than 65.7 ×10⁻⁶ cm/s.

In the case of `N[C@@H](Cc1ccc(O)c(O)c1)C(=O)O` [L-DOPA, 3,4-dihydroxy-L-phenylalanine], the efflux ratio at 10 μM in series [2] worked out at 0.4. Further, in series [2] (Wistar), the apparent permeability from apical to basolateral (Papp A→B) worked out at 73 ± 4 ×10⁻⁶ cm/s.

`CC[C@H](C)C(=O)O[C@H]1C[C@H](O)C=C2C=C[C@H](C)[C@H](CC[C@@H](O)C[C@@H](O)CC(=O)O)[C@H]21` [Pravastatin, pravastatin]: the Papp A→B in series [1] was found to be 0.19 ×10⁻⁶ cm/s; in series [2] (Wistar), 7.61 ×10⁻⁶ cm/s.

Turning to `CCCN(CCC)S(=O)(=O)c1ccc(C(=O)O)cc1` [Probenecid, probenecid], the Papp A→B is 33.4 ×10⁻⁶ cm/s in [1] and 19 ×10⁻⁶ cm/s in [2] (Wistar).

Consider `CC(C)c1nc(N(C)S(C)(=O)=O)nc(-c2ccc(F)cc2)c1/C=C/[C@@H](O)C[C@@H](O)CC(=O)O` [Rosuvastatin, rosuvastatin], for which the Papp A→B in [1] is 0.38 ×10⁻⁶ cm/s; in series [2] (Wistar), 11.3 ×10⁻⁶ cm/s.

`O=C(O)c1ccccc1O` [Salicylic acid, salicylic acid]: the Papp A→B in series [1] was 7.6 ×10⁻⁶ cm/s; in [2] (Wistar), 4.78 ×10⁻⁶ cm/s.

As for `CCCC(CCC)C(=O)O` [Valproic acid, valproic acid], the Papp A→B was 42.2 ×10⁻⁶ cm/s in series [1] and 39.4 ×10⁻⁶ cm/s in series [2] (Wistar).

In the case of `[Cl-].[Li+]` [lithium, lithium chloride], the “Effect on TEER of D3 cells” value with hCMEC/D3 cells is listed as “significantly elevated”.

`Nc1c2c(nc3ccccc13)CCCC2` [tacrine]: the Papp at 30 min, 0.5 µM in the series “in vitro [10]” (Wistar) was 102 ± 27 ×10⁻⁶ cm/s.
